Laboratory results taken from patent publication EP4692114A1, “CALCITONIN ANALOGUE, AND DERIVATIVE THEREOF AND USE THEREOF” (Hangzhou Sciwind Biosciences Co., Ltd., priority 2023, dated 2024).
*1 amine or outer side, *2 acyl side, *3 side chain or, on linkers, in order; H or OH if unused. Where a SMILES comes first, the peptide text is derived from it. The star is where a group is joined. C22 diacid = O=C(O)CCCCCCCCCCCCCCCCCCCCC(=O)*; C20 diacid = O=C(O)CCCCCCCCCCCCCCCCCCC(=O)*; C18 diacid = O=C(O)CCCCCCCCCCCCCCCCC(=O)*; C16 diacid = O=C(O)CCCCCCCCCCCCCCC(=O)*; γGlu = O=C(O)[C@H](CCC(=O)[*:2])N[*:1]; Trx = NC[C@H]1CC[C@H](C(=O)O)CC1; Inp = O=C(O)C1CCNCC1

Test: Heat accelerated stability assay under a neutral condition
Format: physicochemical
Conditions: pH about 7.4, 40°C; for Changes in characteristics or properties, 0d / Changes in characteristics or properties, 7d: 1 mg/mL, phosphate; for Concentration change (7d-0d)/%: Day 7 vs Day 0, reversed phase chromatography; for Purity Change% (7d-0d) / Purity Change% (26d-0d): purity from reversed phase chromatography-214 nm; for Purity Change% (7d-0d): Day 7 vs Day 0; for Purity Change% (26d-0d): Day 26 vs Day 0
Method: The lyophilized powder (1 mg/mL) of calcitonin analogues or derivatives prepared in accordance with the method of Example 1 were mixed with sodium dihydrogen phosphate (1.42 mg/mL) and dissolved in ultrapure water in the indicated mass-volume ratios. After adjusting pH to about 7.4 with hydrochloric acid/sodium hydroxide, the solution was filtered into a sterilized vial in a clean bench using a 0.22 µm sterile filter. The vial was then capped and placed into the stability test chamber at 40°C. Detections were made on Days 7 (7d) and 26 (26d), and during the assay, changes in the characteristics and properties of the polypeptides were observed and recorded. The sample was then centrifuged for 3 min at 10000 rpm at 4°C, and the supernatant was transferred to a liquid phase sample vial for detecting the concentration and purity of the polypeptides using liquid phase chromatography described as below, wherein the concentration of the polypeptide = peak area/injection volume/extinction coefficient/60×flow rate, and the purity of the polypeptide = target peak area/total peak area× 100%.
Conditions of the reversed phase chromatography Flow rate: 1.0 ml/min; Autosampler temperature: 15°C; Column temperature: 25°C; Detection wavelengths: 280 nm and 214 nm; Mobile phase A: 100% H2O+0.05% TFA; Mobile phase B: 100% ACN; and Gradient of elution listed in Table 4: Table 4. Listing of the gradient of elution in the liquid phase chromatography
Results were shown below in Tables 5, 6, and 7. A difference of more than 5% in content as compared with the initial value was typically assumed (for example, as prescribed by the Chinese Pharmacopeia (2020 Edition)) to be a significant change. Within a reasonable margin of error, a decrease of less than 1% from the initial value to the detected content is denoted as "no change" below. Table 5. Changes in characteristics or properties in the heat accelerated stability assay

Changes in characteristics or properties, 0d | Changes in characteristics or properties, 7d | Concentration change (7d-0d)/% | Purity Change% (7d-0d) | Purity Change% (26d-0d) | SMILES
Clear | Clear | -3.134% | -1.66% | -5.98% | CC(C)C[C@H](NC(=O)[C@H](CCCNC(=N)N)NC(=O)CNC(=O)[C@H](CC(C)C)NC(=O)[C@@H](NC(=O)[C@H](C)NC(=O)[C@@H](NC(=O)[C@H](CO)NC(=O)[C@H](CC(C)C)NC(=O)[C@H](CCC(N)=O)NC(=O)[C@H](CO)NC(=O)[C@H](C)NC(=O)[C@H](CCC(=O)O)NC(=O)CCCCCCCCCCCCCCCCCCC(=O)O)[C@@H](C)O)C(C)C)C(=O)N[C@@H](CO)C(=O)N[C@@H](CC(=O)O)C(=O)N[C@@H](CCC(=O)O)C(=O)N[C@@H](CC(C)C)C(=O)N[C@@H](Cc1c[nH]cn1)C(=O)N[C@@H](CCCNC(=N)N)C(=O)N[C@@H](CC(C)C)C(=O)N[C@@H](CCC(N)=O)C(=O)N[C@@H](CC(=O)O)C(=O)N[C@@H](Cc1ccc(O)cc1)C(=O)N1CCC[C@H]1C(=O)N[C@@H](CCCNC(=N)N)C(=O)N[C@H](C(=O)N[C@@H](CC(=O)O)C(=O)N[C@H](C(=O)NCC(=O)N[C@@H](CO)C(=O)NCC(=O)N[C@@H](CO)C(=O)N1CCC[C@H]1C(N)=O)C(C)C)[C@@H](C)O [M41] ({C20 diacid}-EASQLSTAVLGRLSDELHRLQDYPRTDVGSGSP-NH2)
Clear | Clear | -2.280% | -1.67% | -4.82% | CC(C)C[C@H](NC(=O)[C@H](CCCNC(=N)N)NC(=O)CNC(=O)[C@H](CC(C)C)NC(=O)[C@@H](NC(=O)[C@H](C)NC(=O)[C@@H](NC(=O)[C@H](CO)NC(=O)[C@H](CC(C)C)NC(=O)[C@H](CCC(N)=O)NC(=O)[C@H](CO)NC(=O)[C@H](C)NC(=O)CC[C@H](NC(=O)CCCCCCCCCCCCCCC(=O)O)C(=O)O)[C@@H](C)O)C(C)C)C(=O)N[C@@H](CO)C(=O)N[C@@H](CC(=O)O)C(=O)N[C@@H](CCC(=O)O)C(=O)N[C@@H](CC(C)C)C(=O)N[C@@H](Cc1c[nH]cn1)C(=O)N[C@@H](CCCNC(=N)N)C(=O)N[C@@H](CC(C)C)C(=O)N[C@@H](CCC(N)=O)C(=O)N[C@@H](CC(=O)O)C(=O)N[C@@H](Cc1ccc(O)cc1)C(=O)N1CCC[C@H]1C(=O)N[C@@H](CCCNC(=N)N)C(=O)N[C@H](C(=O)N[C@@H](CC(=O)O)C(=O)N[C@H](C(=O)NCC(=O)N[C@@H](CO)C(=O)NCC(=O)N[C@@H](CO)C(=O)N1CCC[C@H]1C(N)=O)C(C)C)[C@@H](C)O [M40] ({C16 diacid-γGlu}-ASQLSTAVLGRLSDELHRLQDYPRTDVGSGSP-NH2)
Clear | Clear | -1.678% | -1% | -3.9% | CC(C)C[C@H](NC(=O)[C@H](CCCNC(=N)N)NC(=O)CNC(=O)[C@H](CC(C)C)NC(=O)[C@@H](NC(=O)[C@H](C)NC(=O)[C@@H](NC(=O)[C@H](CO)NC(=O)[C@H](CC(C)C)NC(=O)[C@H](CCC(N)=O)NC(=O)[C@H](CO)NC(=O)[C@H](C)NC(=O)C1CCN(C(=O)CCCCCCCCCCCCCCCCC(=O)O)CC1)[C@@H](C)O)C(C)C)C(=O)N[C@@H](CO)C(=O)N[C@@H](CC(=O)O)C(=O)N[C@@H](CCC(=O)O)C(=O)N[C@@H](CC(C)C)C(=O)N[C@@H](Cc1c[nH]cn1)C(=O)N[C@@H](CCCNC(=N)N)C(=O)N[C@@H](CC(C)C)C(=O)N[C@@H](CCC(N)=O)C(=O)N[C@@H](CC(=O)O)C(=O)N[C@@H](Cc1ccc(O)cc1)C(=O)N1CCC[C@H]1C(=O)N[C@@H](CCCNC(=N)N)C(=O)N[C@H](C(=O)N[C@@H](CC(=O)O)C(=O)N[C@H](C(=O)NCC(=O)N[C@@H](CO)C(=O)NCC(=O)N[C@@H](CO)C(=O)N1CCC[C@H]1C(N)=O)C(C)C)[C@@H](C)O [M48] ({C18 diacid-Inp}-ASQLSTAVLGRLSDELHRLQDYPRTDVGSGSP-NH2)

SMILES | Changes in characteristics or properties, 0d | Changes in characteristics or properties, 7d | Concentration change (7d-0d)/% | Purity Change% (7d-0d) | Purity Change% (26d-0d)
CC(C)C[C@H](NC(=O)[C@H](CCCNC(=N)N)NC(=O)CNC(=O)[C@H](CC(C)C)NC(=O)[C@@H](NC(=O)[C@H](C)NC(=O)[C@@H](NC(=O)[C@H](CO)NC(=O)[C@H](CC(C)C)NC(=O)[C@H](CCC(N)=O)NC(=O)[C@H](CO)NC(=O)[C@H](C)NC(=O)CC[C@H](NC(=O)CCCCCCCCCCCCCCCCCCCCC(=O)O)C(=O)O)[C@@H](C)O)C(C)C)C(=O)N[C@@H](CO)C(=O)N[C@@H](CC(=O)O)C(=O)N[C@@H](CCC(=O)O)C(=O)N[C@@H](CC(C)C)C(=O)N[C@@H](Cc1c[nH]cn1)C(=O)N[C@@H](CCCNC(=N)N)C(=O)N[C@@H](CC(C)C)C(=O)N[C@@H](CCC(N)=O)C(=O)N[C@@H](CC(=O)O)C(=O)N[C@@H](Cc1ccc(O)cc1)C(=O)N1CCC[C@H]1C(=O)N[C@@H](CCCNC(=N)N)C(=O)N[C@H](C(=O)N[C@@H](CC(=O)O)C(=O)N[C@H](C(=O)NCC(=O)N[C@@H](CO)C(=O)NCC(=O)N[C@@H](CO)C(=O)N1CCC[C@H]1C(N)=O)C(C)C)[C@@H](C)O [M38] ({C22 diacid-γGlu}-ASQLSTAVLGRLSDELHRLQDYPRTDVGSGSP-NH2) | Clear | Clear | No change (a decrease of less than 1% from the initial value to the detected content is denoted as "no change") | No change (a decrease of less than 1% from the initial value to the detected content is denoted as "no change") | No change (a decrease of less than 1% from the initial value to the detected content is denoted as "no change")
CC(C)C[C@H](NC(=O)[C@H](CCCNC(=N)N)NC(=O)CNC(=O)[C@H](CC(C)C)NC(=O)[C@@H](NC(=O)[C@H](C)NC(=O)[C@@H](NC(=O)[C@H](CO)NC(=O)[C@H](CC(C)C)NC(=O)[C@H](CCC(N)=O)NC(=O)[C@H](CO)NC(=O)[C@H](C)NC(=O)[C@H]1CC[C@H](CNC(=O)CCCCCCCCCCCCCCCCC(=O)O)CC1)[C@@H](C)O)C(C)C)C(=O)N[C@@H](CO)C(=O)N[C@@H](CC(=O)O)C(=O)N[C@@H](CCC(=O)O)C(=O)N[C@@H](CC(C)C)C(=O)N[C@@H](Cc1c[nH]cn1)C(=O)N[C@@H](CCCNC(=N)N)C(=O)N[C@@H](CC(C)C)C(=O)N[C@@H](CCC(N)=O)C(=O)N[C@@H](CC(=O)O)C(=O)N[C@@H](Cc1ccc(O)cc1)C(=O)N1CCC[C@H]1C(=O)N[C@@H](CCCNC(=N)N)C(=O)N[C@H](C(=O)N[C@@H](CC(=O)O)C(=O)N[C@H](C(=O)NCC(=O)N[C@@H](CO)C(=O)NCC(=O)N[C@@H](CO)C(=O)N1CCC[C@H]1C(N)=O)C(C)C)[C@@H](C)O [M46] ({C18 diacid-Trx}-ASQLSTAVLGRLSDELHRLQDYPRTDVGSGSP-NH2) | Clear | Clear | No change (a decrease of less than 1% from the initial value to the detected content is denoted as "no change") | No change (a decrease of less than 1% from the initial value to the detected content is denoted as "no change") | -5.67%
